Where “and” joins values, the source holds several entries; their conditions need not be identical. Equal entries are not always repeated. Toxic doses and inconclusive results are not listed.

This test concerns P388 leukemia ip, CD2F1 mice, survival T/C. The experiment in a line: NCI In Vivo Anticancer Drug Screen. Data for tumor model P388 Leukemia (intraperitoneal) in CD2F1 (CDF1) mice. To be noted: endpoint: median survival time, higher = longer survival. The essentials: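 Mice carrying the transplanted tumor received test compound or vehicle. Survival was recorded in each group, and the value is the treated-group measurement divided by that of the vehicle-treated control group.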

Setting [1] is: dose: 25.0 mg/kg/injection, schedule: Q01DX009 (ip), vehicle: saline.
[2] abbreviates: dose: 50.0 mg/kg/injection, schedule: Q01DX005 (ip), vehicle: Klucel (hydroxypropylcellulose) (HPC).
Setting [3] is: dose: 100.0 mg/kg/injection, schedule: Q01DX005 (ip), vehicle: Klucel (hydroxypropylcellulose) (HPC).
Where [4] appears, read: dose: 200.0 mg/kg/injection, schedule: Q01DX005 (ip), vehicle: Klucel (hydroxypropylcellulose) (HPC).
Setting [5] is: dose: 25.0 mg/kg/injection, schedule: Q01DX005 (ip), vehicle: Klucel (hydroxypropylcellulose) (HPC).
Where [6] appears, read: dose: 50.0 mg/kg/injection, schedule: Q01DX005 (ip), vehicle: saline with Tween-80.
The mark [7] stands for this setting: dose: 100.0 mg/kg/injection, schedule: Q01DX005 (ip), vehicle: saline with Tween-80.
The mark [8] stands for this setting: dose: 200.0 mg/kg/injection, schedule: Q01DX005 (ip), vehicle: saline with Tween-80.
[9] abbreviates: dose: 25.0 mg/kg/injection, schedule: Q01DX009 (ip), vehicle: saline with Tween-80.
The mark [10] stands for this setting: dose: 50.0 mg/kg/injection, schedule: Q01DX009 (ip), vehicle: saline with Tween-80.
Setting [11] is: dose: 6.25 mg/kg/injection, schedule: Q01DX009 (ip), vehicle: saline.
[12] abbreviates: dose: 12.5 mg/kg/injection, schedule: Q01DX009 (ip), vehicle: saline.
The mark [13] stands for this setting: dose: 60.0 mg/kg/injection, schedule: Q01DX005 (ip), vehicle: Klucel (hydroxypropylcellulose) (HPC).
[14] abbreviates: dose: 120.0 mg/kg/injection, schedule: Q01DX005 (ip), vehicle: Klucel (hydroxypropylcellulose) (HPC).
The mark [15] stands for this setting: dose: 240.0 mg/kg/injection, schedule: Q01DX005 (ip), vehicle: Klucel (hydroxypropylcellulose) (HPC).
The mark [16] stands for this setting: dose: 100.0 mg/kg/injection, schedule: Q01DX009 (ip), vehicle: saline with Tween-80.
The mark [17] stands for this setting: dose: 200.0 mg/kg/injection, schedule: Q01DX009 (ip), vehicle: saline with Tween-80.

For `CNC(=O)OCc1c(COC(=O)NC)c(C)n(-c2ccc(F)cc2)c1C`, the T/C under setting [1] was 155 % of control.

As to `CC(=O)Nc1ccc2c(c1)N(O)C(=O)C2(C)C`, the T/C was 97 % of control under setting [2], 95 % of control under setting [3] and 102 % of control under setting [4].

For `CC(C)=CCc1c(C)cc2cc3c(c(O)c2c1O)C(O)=CC(=O)C3(CC=C(C)C)CC=C(CO)CO` (centres undefined), the T/C is 97 % of control under setting [5], 93 % of control under setting [2] and 94 % of control under setting [3].

With `NC(=Nc1ccccc1)N(c1ccccc1)c1ccc([N+](=O)[O-])cc1`, the T/C is 92 % of control (dose: 7.5 mg/kg/injection, schedule: Q01DX009 (ip), vehicle: saline with Tween-80); 100 % of control (dose: 15.0 mg/kg/injection, schedule: Q01DX009 (ip), vehicle: saline with Tween-80); 91 % of control (dose: 30.0 mg/kg/injection, schedule: Q01DX009 (ip), vehicle: saline with Tween-80).

Consider `O=C(NC(O)C(Cl)(Cl)Cl)C(Cl)(Cl)Cl` (centres undefined), for which the T/C by setting is: under setting [6], 100 % of control; under setting [7], 95 % of control; under setting [8], 107 % of control.

On to `C[N+]1=C(/C=C/Nc2ccc3ccc4cccc5ccc2c3c45)C(C)(C)c2ccccc21`, for which the T/C runs as follows: (dose: 6.25 mg/kg/injection, schedule: Q01DX009 (ip), vehicle: saline with Tween-80) 108 % of control; (dose: 12.5 mg/kg/injection, schedule: Q01DX009 (ip), vehicle: saline with Tween-80) 100 % of control; under setting [9], 105 % of control; under setting [10], 89 % of control.

Turning to `CN(C)c1ncnc2nc(Cl)[nH]c12`, the T/C (dose: 6.25 mg/kg/injection, schedule: Q01DX005 (ip), vehicle: Klucel (hydroxypropylcellulose) (HPC)) is 95 % of control; the T/C (dose: 12.5 mg/kg/injection, schedule: Q01DX005 (ip), vehicle: Klucel (hydroxypropylcellulose) (HPC)) was 112 % of control; the T/C under setting [5] is 108 % of control.

Regarding `O=C1C(N=Nc2ccc([N+](=O)[O-])cc2)Sc2nc3ccccc3n21` (centres undefined), the T/C is 99 % of control (dose: 7.5 mg/kg/injection, schedule: Q01DX005 (ip), vehicle: Klucel (hydroxypropylcellulose) (HPC)); 92 % of control (dose: 15.0 mg/kg/injection, schedule: Q01DX005 (ip), vehicle: Klucel (hydroxypropylcellulose) (HPC)); 90 % of control (dose: 30.0 mg/kg/injection, schedule: Q01DX005 (ip), vehicle: Klucel (hydroxypropylcellulose) (HPC)).

Consider `O=S(=O)(c1cnccc1N1CCN(CCCl)CC1)N1CCCCC1`, for which the T/C is, setting by setting: under setting [11], 98 % of control and 100 % of control; under setting [12], 100 % of control and 104 % of control and 105 % of control; under setting [1], 100 % of control and 108 % of control and 109 % of control.

In the case of `CC(C)CC(C)NC(=O)Nc1ccc(Cc2ccc(NC(=O)NC(C)CC(C)C)cc2)cc1` (centres undefined), the T/C is 96 % of control (dose: 50.0 mg/kg/injection, schedule: Q01DX009 (ip), vehicle: Klucel (hydroxypropylcellulose) (HPC)); 97 % of control (dose: 100.0 mg/kg/injection, schedule: Q01DX009 (ip), vehicle: Klucel (hydroxypropylcellulose) (HPC)); 93 % of control (dose: 200.0 mg/kg/injection, schedule: Q01DX009 (ip), vehicle: Klucel (hydroxypropylcellulose) (HPC)).

Take `CCOC(=O)C1C(c2ccc(OC)cc2OC)c2cc3c(cc2OC1(C)N1CCCC1)OCO3` (centres undefined): the T/C is, setting by setting: under setting [13], 90 % of control; under setting [14], 97 % of control; under setting [15], 94 % of control.

Regarding `O=S1(=O)CS/C(=N\C(=S)N(c2ccccc2)c2ccccc2)N1c1ccccc1`, the T/C is, setting by setting: (dose: 3.13 mg/kg/injection, schedule: Q04DX003 (ip), vehicle: saline with Tween-80) 106 % of control; (dose: 6.25 mg/kg/injection, schedule: Q04DX003 (ip), vehicle: saline with Tween-80) 99 % of control; (dose: 12.5 mg/kg/injection, schedule: Q04DX003 (ip), vehicle: saline with Tween-80) 94 % of control and 95 % of control; (dose: 50.0 mg/kg/injection, schedule: Q04DX003 (ip), vehicle: saline with Tween-80) 86 % of control; (dose: 200.0 mg/kg/injection, schedule: Q04DX003 (ip), vehicle: saline with Tween-80) 93 % of control.

In the case of `O=C(c1ccc(Cl)cc1)c1cc2c(ccc3ccccc32)oc1=O`, the T/C was 91 % of control under setting [11], 95 % of control under setting [12] and 104 % of control under setting [1].

Take `NCCCn1[nH]c(=O)c2ccncc2c1=O`: the T/C runs as follows: (dose: 100.0 mg/kg/injection, schedule: Q04DX002 (ip), vehicle: saline) 97 % of control; (dose: 200.0 mg/kg/injection, schedule: Q04DX002 (ip), vehicle: saline) 97 % of control; (dose: 400.0 mg/kg/injection, schedule: Q04DX002 (ip), vehicle: saline) 95 % of control.

`Cc1cc(=O)c2cc3ccc4cccc5ccc(c2[nH]1)c3c45`: the T/C was 98 % of control under setting [6], 103 % of control under setting [7] and 100 % of control under setting [8].

Turning to `CC(C)C1=CC2=C[C@H](O)[C@H]3C(C)(C)CCC[C@]3(C)C2=C(O)C1=O`, the T/C was 109 % of control and 91 % of control (dose: 1.25 mg/kg/injection, schedule: Q01DX009 (ip), vehicle: saline with Tween-80); 103 % of control (dose: 1.25 mg/kg/injection, schedule: Q01DX009 (ip), vehicle: suspension in saline); 108 % of control (dose: 1.75 mg/kg/injection, schedule: Q01DX009 (ip), vehicle: saline with Tween-80); 100 % of control and 111 % of control and 123 % of control (dose: 2.5 mg/kg/injection, schedule: Q01DX009 (ip), vehicle: saline with Tween-80); 109 % of control (dose: 2.5 mg/kg/injection, schedule: Q01DX009 (ip), vehicle: suspension in saline); 104 % of control and 108 % of control and 111 % of control (dose: 5.0 mg/kg/injection, schedule: Q01DX009 (ip), vehicle: saline with Tween-80). In addition, the T/C is 100 % of control (dose: 5.0 mg/kg/injection, schedule: Q01DX009 (ip), vehicle: suspension in saline); 107 % of control and 109 % of control and 113 % of control (dose: 10.0 mg/kg/injection, schedule: Q01DX009 (ip), vehicle: saline with Tween-80); 113 % of control (dose: 10.0 mg/kg/injection, schedule: Q01DX009 (ip), vehicle: suspension in saline); 109 % of control (dose: 20.0 mg/kg/injection, schedule: Q01DX009 (ip), vehicle: suspension in saline).

Regarding `CC1(C)CC(C)(C)C([Se]C2=C(O)C(=O)C(C)(C)CC2(C)C)=C(O)C1=O`, the T/C reads like this: under setting [10], 100 % of control; under setting [16], 101 % of control; under setting [17], 94 % of control.

`[Cl][Pd][Cl].[NH-]C1CCCC2CCC[N-]C12` (centres undefined): the T/C was 104 % of control (dose: 12.5 mg/kg/injection, schedule: Q04DX002 (ip), vehicle: saline with Tween-80); 110 % of control (dose: 25.0 mg/kg/injection, schedule: Q04DX002 (ip), vehicle: saline with Tween-80); 104 % of control (dose: 50.0 mg/kg/injection, schedule: Q04DX002 (ip), vehicle: saline with Tween-80).

Take `O=C1c2ccccc2C(=O)N1OCc1ccccc1[N+](=O)[O-]`: the T/C runs as follows: under setting [2], 102 % of control; under setting [3], 101 % of control; under setting [4], 90 % of control.

As for `O=C(O)CN1CC(=O)N(c2ccccc2)C1=S`, the T/C runs as follows: (dose: 50.0 mg/kg/injection, schedule: Q01DX009 (ip), vehicle: saline) 101 % of control; (dose: 100.0 mg/kg/injection, schedule: Q01DX009 (ip), vehicle: saline) 97 % of control; (dose: 200.0 mg/kg/injection, schedule: Q01DX009 (ip), vehicle: saline) 93 % of control.

Take `O=C(CSC1CCc2ccccc21)N/N=C/c1ccccc1O` (centres undefined): the T/C was 96 % of control under setting [2], 98 % of control under setting [3] and 89 % of control under setting [4].

On to `O=c1[nH]c2ccccc2c2nc(-c3ccccc3)c3ccccc3c12`, for which the T/C reads like this: under setting [13], 96 % of control; under setting [14], 86 % of control; under setting [15], 91 % of control.

Consider `Cc1ncc([N+](=O)[O-])n1CCOC(=O)c1ccc(F)cc1`, for which the T/C is, setting by setting: under setting [10], 99 % of control; under setting [16], 92 % of control; under setting [17], 97 % of control.

As for `CC(=O)Nc1ccc(/C=N/NC(=O)c2ccc(C)cc2)cc1`, the T/C reads like this: under setting [9], 103 % of control; under setting [10], 86 % of control.

The record behind these values is PubChem BioAssay AID330 (DTP/NCI, 2004).
